These results are taken from publication PMC6299481, “Deciphering the Evolution of Cephalosporin Resistance to Ceftolozane-Tazobactam in Pseudomonas aeruginosa” (mBio, 2018).

The structures appear in SMILES notation. Like-named read-outs stand apart in the source and are kept apart here.

Assay [1] has as its target T1, E221K variant of PDC-3 β-lactamase (Pseudomonas aeruginosa, UniProt P24735, E247K/T105A).
T1 construct: produces the corresponding PDC-3 protein without its signal peptide; made in house; host or cells: E. coli Origami 2 DE3, pET24a (+) blaPDC-3-E221K
As to the kind of experiment: Steady-state hydrolysis kinetics. Format: biochemical. The procedure:
(§1) Steady-state kinetic and inhibitor parameters were determined by using an Agilent 8453 diode array spectrophotometer at room temperature as previously described ([20], [43], [49]). Each assay was performed in 10 mM phosphate-buffered saline (PBS) at pH 7.4 at room temperature (RT = ∼25°C) in a quartz cuvette with a 1-cm path length. Measurements were obtained using ceftolozane and ceftazidime. The kinetic parameters, Vmax and Km, were obtained with a nonlinear least-squares fit of the data (Henri Michaelis-Menten, equation 1) using Origin 7.5VR (OriginLab, Northampton, MA).(1) v=Vmax [S]/Km+[S]

Assay [2] deals with T2, PDC-3 β-lactamase (Pseudomonas aeruginosa, UniProt P24735, T105A).
T2 construct: produces the corresponding PDC-3 protein without its signal peptide; made in house; host or cells: E. coli Origami 2 DE3, pET24a (+) blaPDC-3
Kind of assay: Steady-state hydrolysis kinetics. Format: biochemical. The conditions noted are these: reporter substrate with PDC-3. As to the method: as §1

The subject of assay [3] is E. coli DH10B pBC SK blaPDC-1. As to the kind of experiment: MIC, MH agar dilution (CLSI). Format: cell-based. To be noted: Escherichia coli, β-lactam alone. The procedure:
(§2) Variant genes were synthesized into the pBC SK (-) vector by Celtek Bioscience (Franklin, TN). Mueller-Hinton (MH) agar-dilution MIC measurements were performed against isogenic transformants producing PDC-3 and nine variants of PDC-3 in pBC SK (-) according to the Clinical and Laboratory Standards Institute (CLSI) guidelines as previously described ([39], [48]). Avibactam, LP-06, and S02030 were tested at a constant 4 µg/ml in combination with various concentrations of ceftazidime. Piperacillin-tazobactam was maintained at a ratio of 8 piperacillin to 1 tazobactam. Ceftolozane-tazobactam was maintained at a ratio of 2 ceftolozane to 1 tazobactam. The MICs are reported as the concentrations at which bacterial growth was no longer observed. All MIC measurements were performed at least three times.

In assay [4] the test system is E. coli DH10B pBC SK blaPDC-3 E221A. As to the kind of experiment: MIC, MH agar dilution (CLSI). Format: cell-based. To be noted: Escherichia coli; β-lactam alone; E. coli DH10B pBC SK blaPDC-3 E221A (Table 2 prints E221). As to the method:
as §2

For assay [5], the system named is E. coli DH10B pBC SK blaPDC-3 E221G. Kind of assay: MIC, MH agar dilution (CLSI). Format: cell-based. The conditions noted are these: Escherichia coli, β-lactam alone. The procedure:
as §2

The test system of assay [6] is E. coli DH10B pBC SK blaPDC-3 G216A. As to the kind of experiment: MIC, MH agar dilution (CLSI). Format: cell-based. To be noted: Escherichia coli; β-lactam alone; E. coli DH10B pBC SK blaPDC-3 G216A (Table 2 prints G216). The procedure: as §2
For assay [7], the system named is E. coli DH10B pBC SK blaPDC-3 G216R. As to the kind of experiment: MIC, MH agar dilution (CLSI). Format: cell-based. The conditions noted are these: Escherichia coli, β-lactam alone. The procedure:
as §2

Assay [8] concerns E. coli DH10B pBC SK blaPDC-3 V213A. Kind of assay: MIC, MH agar dilution (CLSI). Format: cell-based. The conditions noted are these: Escherichia coli, β-lactam alone. As to the method:
as §2

In assay [9] the test system is E. coli DH10B pBC SK blaPDC-3 V213G. As to the kind of experiment: MIC, MH agar dilution (CLSI). Format: cell-based. The conditions noted are these: Escherichia coli, β-lactam alone. The procedure:
as §2

Assay [10] has as its system E. coli DH10B pBC SK blaPDC-3 Y223A. As to the kind of experiment: MIC, MH agar dilution (CLSI). Format: cell-based. To be noted: Escherichia coli, β-lactam alone. The procedure: as §2
The subject of assay [11] is E. coli DH10B pBC SK blaPDC-3 Y223H. As to the kind of experiment: MIC, MH agar dilution (CLSI). Format: cell-based. The conditions noted are these: Escherichia coli, β-lactam alone. The procedure:
as §2

The subject of assay [12] is E. coli DH10B pBC SK blaPDC-3. As to the kind of experiment: MIC, MH agar dilution (CLSI). Format: cell-based. The conditions noted are these: Escherichia coli, read-out: MIC value, β-lactam alone; E. coli DH10B pBC SK blaPDC-3. The procedure: as §2
The subject of a further assay is E. coli DH10B pBC SK. As to the kind of experiment: MIC, MH agar dilution (CLSI). The conditions noted are these: Escherichia coli, DH10BPBCSK, β-lactam alone. Format: cell-based. As to the method: as §2
For the next assay, the system named is E. coli DH10B. As to the kind of experiment: MIC, MH agar dilution (CLSI). Format: cell-based. To be noted: Escherichia coli, β-lactam alone. As to the method: as §2
The test system of a further assay is P. aeruginosa 18SH. As to the kind of experiment: MIC, MH agar dilution (CLSI). Format: cell-based. The conditions noted are these: Pseudomonas aeruginosa, β-lactam alone, control strain expressing PDC-3. As to the method:
as §2

In a further assay the test system is P. aeruginosa PAO1. Kind of assay: MIC, MH agar dilution (CLSI). To be noted: Pseudomonas aeruginosa; β-lactam alone; P. aeruginosa PAO1, control strain expressing PDC-1. Format: cell-based. The procedure: as §2
For assay [13], the system named is E. coli DH10B pBC SK blaPDC-3 E221K. Kind of assay: MIC, MH agar dilution (CLSI). Format: cell-based, Escherichia coli. The procedure:
as §2

Assay [14] deals with T2, PDC-3 β-lactamase. As to the kind of experiment: Competitive inhibition assay with nitrocefin as reporter substrate (Ki app). Format: biochemical. As to the method:
For competitive inhibition assays used to determine Ki app, 150 μM nitrocefin was used as the reporter substrate with increasing concentrations of ceftazidime or ceftolozane. Initial velocities were plotted against concentrations of ceftazidime or ceftolozane. Ki app obs were determined by dividing the slope by the y intercept. Ki app was calculated by correcting Ki app obs for nitrocefin affinity and concentration (equation 3). (3) Ki app=Ki app obs/[1+([NCF]/Km NCF)

Assay [15] concerns E. coli DH10B strains expressing PDC-3 variants. Kind of assay: MIC, MH agar dilution (CLSI), variant strains taken together. Format: cell-based, Escherichia coli. To be noted: oxyimino cephalosporin paired with avibactam. As to the method:
as §2

Assay [16] concerns the target T2, PDC-3 β-lactamase. To be noted: cited from earlier work; for Km: PDC-3, previously reported value; for kcat: PDC-3, reported value.
Assay [17] concerns the target T1, E221K variant of PDC-3 β-lactamase. As to the kind of experiment: BATSI inhibition kinetics (IC50), nitrocefin reporter. Format: biochemical. To be noted: E221K (20 nM); 5-min preincubation; 100 μM nitrocefin reporter substrate. As to the method:
(§3) Because of the time-dependent inhibition observed previously with some of the chiral boronates ([43]), the BATSIs were preincubated with enzyme for 5 min in phosphate-buffered saline before initiation of the reaction with the addition of substrate. The initial velocity (0 to 10 s) was measured in the presence of a constant concentration of enzyme (1.5 nM PDC-3 and 20 nM E221K) and increasing concentrations of the inhibitors against the fixed concentration (100 μM) of the indicator substrate, nitrocefin. The IC50 is the concentration of inhibitor that reduces the velocity by 50%. IC50 values were determined by fitting the initial velocity (v0) measurements to equation 2.(2) v0= Vmax[S]/Km[1+ I/IC50]+[S]

For assay [18], the target named is T2, PDC-3 β-lactamase. Described as above. Format: biochemical. The conditions noted are these: PDC-3 (1.5 nM); 5-min preincubation; 100 μM nitrocefin reporter substrate. The procedure:
as §3

Assay [19] deals with T1, E221K variant of PDC-3 β-lactamase. As to the kind of experiment: Thermal denaturation by circular dichroism. The conditions noted are these: 10 μM E221K with 200 μM inhibitor; CD, 20 to 80°C. Format: binding. As to the method: (§4) Circular dichroism (CD) experiments were carried out in a Jasco (Easton, MD) J-815 spectrometer with a Peltier effect temperature controller. Quartz cells with a 0.1-cm path length were used for all experiments.
(§5) PDC-3 enzyme and the E221K variant (10 μM) with or without S02030 or LP-06 (200 μM) were monitored for thermal denaturation by CD at λ215 and λ221 between 20 and 80°C with a heating rate of 2°C/min. Two-state behavior was indicated by identical curves at each wavelength. Raw equilibrium denaturation data were normalized to the fraction of denatured protein (fU). With the assumption of a reversible two-state transition (N ↔ U), equilibrium constants (Keq) at any given temperature were calculated, as previously described ([32]), using equation 4 (4) Keq=fU/(1−fU)
(§6) The melting temperature Tm was determined at the midpoint of equilibrium folding (T = Tm) when ΔG = 0. (5) ln Keq=1/T (−ΔH/R)+ΔS/R
(§7) The free energy of unfolding was determined as previously described using the equation ΔΔGu = ΔTmΔSu^PDC-3 (Schellman), where ΔSu^PDC-3 = 0.326 ± 0.02 Kcal mol^−1 K^−1.

Assay [20] concerns the target T2, PDC-3 β-lactamase. Kind of assay: Thermal denaturation by circular dichroism. Format: binding. The conditions noted are these: 10 μM PDC-3 with 200 μM inhibitor; CD, 20 to 80°C. As to the method:
as §4, §5, §6, §7

[21] abbreviates: substrate hydrolysis by E221K, 10 mM PBS pH 7.4, room temperature.

Regarding `O=C(Cc1cccs1)N[C@@H]1C(=O)N2C(C(=O)O)=C(/C=C/c3ccc([N+](=O)[O-])cc3[N+](=O)[O-])CS[C@H]12` [nitrocefin], the Michaelis-Menten constant (Km) in assay [1] (reporter substrate with E221K) stood at 17 ± 3 µM; at PDC-3 β-lactamase [2], 20 ± 2 µM.

As for `CC(C)(O/N=C(\C(=O)N[C@@H]1C(=O)N2C(C(=O)[O-])=C(C[n+]3ccccc3)CS[C@H]12)c1csc(N)n1)C(=O)O` [Ceftazidime], the MIC in assay [3] was 2 µg/mL; in [4] it was 8 µg/mL; in assay [5], 32 µg/mL; in [6] it was 16 µg/mL; in [7], 32 µg/mL; in [8], 32 µg/mL. Further, the minimum inhibitory concentration (MIC) in assay [9] worked out at 16 µg/mL; in [10] it was 32 µg/mL; in assay [11] it was 16 µg/mL; in assay [12] it was 2 µg/mL; in the assay on E. coli DH10B pBC SK, 0.25 µg/mL; in the assay with E. coli DH10B, 0.25 µg/mL. Also, the minimum inhibitory concentration (MIC) in the assay with P. aeruginosa 18SH worked out at 64 µg/mL; with P. aeruginosa PAO1, 1 µg/mL; in assay [13] (Escherichia coli, read-out: MIC value), 64 µg/mL. The “fold increase in MIC relative to the wild-type strain” value in assay [13] (E221K variant strain versus PDC-3 strain, E. coli DH10B) is 32 fold. Besides, the Km was 174 ± 20 µM in assay [1] (setting [21]), 51.7 ± 2.1 µM on PDC-3 β-lactamase [16] (ref 20) and 35 µM on PDC-3 β-lactamase [16] (ref 28). Also, in assay [1] (setting [21]), the Vmax worked out at 0.9 ± 0.1 µM/s. In addition, the values for the kcat (in [1] (setting [21]); at PDC-3 β-lactamase [16] (ref 4); at PDC-3 β-lactamase [16] (ref 28)) were 9 ± 1 s⁻¹, 0.002 s⁻¹ and 0.02 s⁻¹, respectively. Moreover, on PDC-3 β-lactamase [14] (150 μM nitrocefin reporter substrate), the Ki is 22000 nM. Moreover, the “fold difference in Ki app between ceftolozane and ceftazidime” value on PDC-3 β-lactamase [14] (ceftolozane Ki app higher than ceftazidime Ki app) was around 60 fold. The “MICs when paired with avibactam” value in [15] was at most 1 mg/L.

Regarding `O=C(Cc1cccs1)N[C@@H](Cn1cc(C(=O)O)nn1)B(O)O` [S02030], in assay [13] (strain expressing E221K, highest MICs among variant strains), the “MICs of ceftolozane and ceftazidime combined with BATSI” value was in the range of 8 to 16 mg/L. For the same compound, the IC50 in assay [17] was found to be 769 ± 30 nM; on PDC-3 β-lactamase [18] it was 62 ± 2 nM. Further, the entries for the “increase in thermal stability (Tm) on inhibitor binding” value (in [19]; at PDC-3 β-lactamase [20]) were 3 to 4 °C and 6 °C, respectively.
